According to patent US9464075B2 (priority 2008, dated 2016):
Like-named read-outs stand apart in the source and are kept apart here.

Columns and labels:
[1] = target: AM2 (Influenza A virus, UniProt P0DOF5); experiment: cell-based; details: read-out: AM2 % inhibition at 100 μM
[2] = target: A/M2 channels (Influenza virus A/Udorn/72 A/M2 protein) (Influenza A virus, UniProt P0DOF5); experiment: cell-based; details: for activity at 100 µM: read-out: AM2 channel activity after 100 μM compound inhibition
[3] = target: A/M2TM (22-46) (Influenza A virus, UniProt P0DOF5); experiment: biochemical; format: binding
Sequence of A/M2TM (22-46) (P0DOF5 22-46 limits assumed): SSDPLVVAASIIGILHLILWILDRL

Sequence of A/M2 channels (Influenza virus A/Udorn/72 A/M2 protein) (P0DOF5 whole entry, looked up): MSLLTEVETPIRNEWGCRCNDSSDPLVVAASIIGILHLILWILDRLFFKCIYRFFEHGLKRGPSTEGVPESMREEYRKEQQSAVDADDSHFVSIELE
Sequence of AM2 (P0DOF5 whole entry): as the sequence (P0DOF5 whole entry, looked up) above

Row | Compound | inhibition at 100 µM [1] [%] | activity at 100 µM [2] [%] | other results
1 | NN1C(=O)CC2(CCCCC2)CC1=O [Compound 28, 3-Amino-3-aza-spiro[5.5]undecane-2,4-dione] | 29 | – | –
2 | Cl.NNC1CCC2(CCCCC2)CC1 [Compound 31, N′-Spiro[5.5]undec-3-yl-hydrazinium chloride] | 78.8 | – | –
3 | N=C(N)NC1CCC2(CCCCC2)CC1 [Compound 35] | 92 | – | –
4 | c1nc(CNCCNC2CCC3(CCCCC3)CC2)c[nH]1 [Compound 14, N-(1H-Imidazol-4-ylmethyl)-N′-spiro[5.5]undec-3-yl-ethane-1,2-diamine] | – | 91 | –
5 | C1CCC2(CC1)CCNCC2 [Compound 20, 3-Aza-spiro[5.5]undecane, reference compound] | – | 5 | IC50 [2]: 0.92 ± 0.11 µM; Kd ([3]; read-out: Kd): 12.9 µM
6 | OC(c1c[nH]cn1)C1CCC2(CCCCC2)CC1 (stereo not shown) [Compound 18] | – | 30 | –
7 | c1nc(NC2CCC3(CCCCC3)CC2)n[nH]1 [Compound 11, Spiro[5.5]undec-3-yl-(1H-[1,2,4]triazol-3-yl)-amine] | – | 25 | –
8 | NC1CSC2(CCCCCC2)SC1 [Compound 34, 1,5-Dithia-spiro[5.6]dodec-3-yl-ammonium chloride] | 84.1 | – | –
9 | C1CCC2(CC1)CCCNCC2 [Compound 30, 9-Azonia-spiro[5.6]dodecane chloride] | 94 | – | –
10 | C1CCC2(CC1)CCN(C1=NCCN1)CC2 [BL-1743, 3-(4,5-Dihydro-1H-imidazol-2-yl)-3-aza-spiro[5.5]undecane, reference compound] | – | 25 | IC50 [2]: 45.3 ± 3.92 µM; Kd [3]: 194 µM
11 | Cl.NC1CSC2(CCCCC2)SC1 [Compound 33, 1,5-Dithia-spiro[5.5]undec-3-yl-ammonium chloride] | 84.2 | – | –
12 | OC1(c2cnc[nH]2)CCC2(CCCCC2)CC1 [Compound 15] | – | 40 | –
13 | NC12CC3CC(CC(C3)C1)C2 [Amantadine, reference compound] | – | 6 | –
14 | NCCNC1CCC2(CCCCC2)CC1 [Compound 12, N^1-Spiro[5.5]undec-3-yl-ethane-1,2-diamine] | – | 100 | –
15 | NN1CCC2(CCCCC2)CC1 [Compound 29, 3-Aza-spiro[5.5]undec-3-yl-ammonium chloride] | 86 | – | –
16 | Cl.NC1CCC2(CCCCC2)CC1 [Compound 8] | – | – | AM2 channel activity after 100 μM compound inhibition [2]: 11%
17 | CCC1(CC)CCc2nc(N)sc2C1 [Compound 32, 6,6-Diethyl-4,5,6,7-tetrahydro-benzothiazol-2-ylamine] | 32 | – | –
18 | NCCCNC1CCC2(CCCCC2)CC1 [Compound 13, N^1-Spiro[5.5]undec-3-yl-propane-1,3-diamine] | – | 100 | –
